Assay [1] deals with wildtype Wnt signaling cascade. In words: HEK293 TOP Assay (Super TopFlash luciferase reporter, Wnt-3a stimulated). It counts as cell-based. To be noted: Homo sapiens, HEK293, 16 h, HEK293 TOP reporter cell line, Wnt-3a at EC50, 16 hours incubation, compound dilution series 50 μM to 15 nM. The gist of the method:
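Compounds (50 μM down to 15 nM, 3.16-fold steps, in CAFTY buffer pH 7.4, 2 mM Ca2+, 0.01% BSA) tested in parallel on TOP and FOP HEK293 reporter lines to define selective wildtype Wnt inhibition. Pathway driven by recombinant human Wnt-3a applied at 2500–5 ng/ml in two-fold dilutions.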

Assay [2] deals with T1, TNKS1 (Homo sapiens, UniProt O95271).
T1 sequence (O95271 1-1327): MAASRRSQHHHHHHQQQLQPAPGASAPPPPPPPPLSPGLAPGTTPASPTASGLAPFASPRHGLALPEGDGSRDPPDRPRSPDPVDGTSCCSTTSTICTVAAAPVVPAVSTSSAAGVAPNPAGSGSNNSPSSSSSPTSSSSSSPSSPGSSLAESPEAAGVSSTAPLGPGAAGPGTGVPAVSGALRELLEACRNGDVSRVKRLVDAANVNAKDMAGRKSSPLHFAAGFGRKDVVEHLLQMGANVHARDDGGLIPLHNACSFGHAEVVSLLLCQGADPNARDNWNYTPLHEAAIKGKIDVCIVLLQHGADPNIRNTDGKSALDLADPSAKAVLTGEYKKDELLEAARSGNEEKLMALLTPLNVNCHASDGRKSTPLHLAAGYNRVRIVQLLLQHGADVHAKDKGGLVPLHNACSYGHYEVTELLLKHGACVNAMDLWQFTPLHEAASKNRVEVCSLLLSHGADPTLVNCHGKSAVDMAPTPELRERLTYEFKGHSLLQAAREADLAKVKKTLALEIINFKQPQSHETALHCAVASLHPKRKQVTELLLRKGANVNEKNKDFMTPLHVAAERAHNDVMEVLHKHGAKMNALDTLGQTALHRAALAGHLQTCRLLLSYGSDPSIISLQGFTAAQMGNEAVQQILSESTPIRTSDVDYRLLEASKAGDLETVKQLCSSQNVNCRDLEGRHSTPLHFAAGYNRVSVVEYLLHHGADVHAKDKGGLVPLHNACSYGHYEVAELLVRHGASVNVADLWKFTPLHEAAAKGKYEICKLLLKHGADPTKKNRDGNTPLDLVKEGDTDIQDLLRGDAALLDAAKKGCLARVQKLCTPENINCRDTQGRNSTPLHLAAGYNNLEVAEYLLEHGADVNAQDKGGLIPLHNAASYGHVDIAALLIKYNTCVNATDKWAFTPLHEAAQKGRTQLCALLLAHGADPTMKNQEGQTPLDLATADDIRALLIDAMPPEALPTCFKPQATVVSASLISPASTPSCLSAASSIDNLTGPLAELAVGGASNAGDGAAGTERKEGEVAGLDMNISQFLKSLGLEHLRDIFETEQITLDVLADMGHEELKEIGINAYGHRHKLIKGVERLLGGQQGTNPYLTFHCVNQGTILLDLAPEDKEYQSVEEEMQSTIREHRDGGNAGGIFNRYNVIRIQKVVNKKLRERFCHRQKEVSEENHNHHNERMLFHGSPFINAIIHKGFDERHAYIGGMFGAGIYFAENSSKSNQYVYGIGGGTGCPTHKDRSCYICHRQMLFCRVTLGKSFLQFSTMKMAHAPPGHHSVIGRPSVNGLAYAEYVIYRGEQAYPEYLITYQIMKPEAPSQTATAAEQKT
Description: Modified TNKS1 Assay 3 (BPS kit #80573, biotin-NAD+, 96 well). To be noted: human TNKS1, BPS kit #80573, 96 well. It counts as biochemical. As to the method: The potency of the compounds against human TNKS1 according to the invention was assessed using a commercially available biotin/streptavidin binding assay kits from BPS Bioscience, San Diego, USA (Catalog #80573 for TNKS1). The incorporation of a biotin-labeled NAD+ during the […] catalyzed ribosylation of a suitable protein substrate was detected using with a streptavidin-HRP coupled chemi-luminescent readout. The intensity of the readout signal is proportional to the incorporated NAD^+. Inhibition of TNKS1 leads to a decreased incorporation of NAD^+ and consequently to a lower readout signal intensity in the corresponding TNKS1 assays. The concentration of a test compound that inhibits the enzyme activity by 50% (corresponds to half of the normed readout signal intensity) is reported as IC50. The assay was conducted in a 96 well MTP format according to the manufacturer's protocol and using a BMG Pherastar MTP reader [BMG-Labtech, Offenburg, Germany].

Assay [3] has as its system HEK293 FOP control reporter cell line. Description: HEK293 FOP Assay (FOP control vector luciferase reporter). The following applies: Homo sapiens; HEK293 FOP control reporter cell line, 16 hours incubation, compound dilution series 50 μM to 15 nM. It counts as cell-based. Put shortly:
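Compound series 50 μM to 15 nM, 3.16-fold steps, were diluted in CAFTY buffer (pH 7.4, 2 mM Ca2+, 0.01% BSA) and tested alongside the TOP reporter line. Human Wnt-3a was added at 2500–5 ng/ml in two-fold steps. The control HEK293 line stably holds an FOP vector whose TCF elements are randomized and non-functional.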

Consider 17 compounds from patent US9884063B2, “Amido-substituted azole compounds” (Bayer Pharma Aktiengesellschaft, priority 2014, dated 2018).

One may read the IC50 as the concentration that gives 50% inhibition.

As to `O=C(Nc1ccc(NC(=O)c2nc[nH]c2C(=O)NCCN2CCC[C@H](F)C2)cc1)c1ccc(F)cc1Cl` [Example 276, N^4-{4-[(2-chloro-4-fluorobenzoyl)amino]phenyl}-N^5-{2-[(3S)-3-fluoropiperidin-1-yl]ethyl}-1H-imidazole-4,5-dicarboxamide], the 50% inhibitory concentration (IC50) in assay [1] was 110 nM; in assay [2], 50 nM; in assay [3], 31000 nM.

As to `CC(C)(C)NC(=O)c1[nH]cnc1C(=O)Nc1ccc(NC(=O)c2ccc(F)cc2Cl)cc1` [Example 133, N^5-tert-butyl-N^4-{4-[(2-chloro-4-fluorobenzoyl)amino]phenyl}-1H-imidazole-4,5-dicarboxamide], the IC50 in assay [1] came to 430 nM; in assay [2], 200 nM; in assay [3] it was 8700 nM.

`CCN(CC)CCNC(=O)c1nc[nH]c1C(=O)Nc1ccc(NC(=O)c2ccc(F)cc2Cl)cc1` [Example 382, N^5-{4-[(2-chloro-4-fluorobenzoyl)amino]phenyl}-N^4-[2-(diethylamino)ethyl]-1H-imidazole-4,5-dicarboxamide]: the IC50 was determined as 120 nM in assay [1] and 20 nM in assay [2].

As to `CN(C)CCNC(=O)c1nc[nH]c1C(=O)Nc1ccc(NC(=O)c2ccc(F)cc2Cl)nc1` [Example 109, N^5-{6-[(2-chloro-4-fluorobenzoyl)amino]pyridin-3-yl}-N^4-[2-(dimethylamino)ethyl]-1H-imidazole-4,5-dicarboxamide], the IC50 in assay [1] came out at 140 nM; in assay [2], 1 nM; in assay [3], 43000 nM.

For `CN1CCC(NC(=O)c2nc[nH]c2C(=O)Nc2ccc(NC(=O)c3ccc(F)cc3Cl)cc2)CC1` [Example 414, N^5-{4-[(2-chloro-4-fluorobenzoyl)amino]phenyl}-N^4-(1-methylpiperidin-4-yl)-1H-imidazole-4,5-dicarboxamide], the figures for the IC50 in assay [1], in assay [2] and in assay [3] were 270 nM, 50 nM and 33000 nM, respectively.

As for `O=C(Nc1ccc(NC(=O)c2nc[nH]c2C(=O)NCCN2CCC[C@@H](O)C2)cc1)c1ccc(F)cc1Cl` [Example 272, N^4-{4-[(2-chloro-4-fluorobenzoyl)amino]phenyl}-N^5-{2-[(3R)-3-hydroxypiperidin-1-yl]ethyl}-1H-imidazole-4,5-dicarboxamide], the IC50 in assay [1] came out at 120 nM; in assay [2], 70 nM.

Consider `CN1CCCC1CCNC(=O)c1nc[nH]c1C(=O)Nc1ccc(NC(=O)c2ccc(F)cc2Cl)cc1` (stereo not shown) [Example 385, N^5-{4-[(2-chloro-4-fluorobenzoyl)amino]phenyl}-N^4-[2-(1-methylpyrrolidin-2-yl)ethyl]-1H-imidazole-4,5-dicarboxamide], for which the half-maximal inhibitory concentration (IC50) in assay [1] amounted to 310 nM; in assay [2] it was 50 nM.

Consider `O=C(Nc1ccc(NC(=O)c2nc[nH]c2C(=O)NCCCN2CCCC(O)C2)cc1)c1ccc(F)cc1Cl` (stereo not shown) [Example 273, N^4-{4-[(2-chloro-4-fluorobenzoyl)amino]phenyl}-N^5-[3-(3-hydroxypiperidin-1-yl)propyl]-1H-imidazole-4,5-dicarboxamide], for which the IC50 came out at 1550 nM in assay [1], 30 nM in assay [2] and 21000 nM in assay [3].

Take `O=C(Nc1ccc(NC(=O)c2nc[nH]c2C(=O)NCCCN2CCCCC2)cc1)c1ccc(F)cc1Cl` [Example 297, N^4-{4-[(2-chloro-4-fluorobenzoyl)amino]phenyl}-N^5-[3-(piperidin-1-yl)propyl]-1H-imidazole-4,5-dicarboxamide]: the IC50 in assay [1] was 1050 nM; in assay [2], greater than 500 nM; in assay [3] it was 22500 nM.

Turning to `O=C(Nc1ccc(NC(=O)c2nc[nH]c2C(=O)NCCN2CCC(O)CC2)cc1)c1ccc(F)cc1Cl` [Example 212, N^4-{4-[(2-chloro-4-fluorobenzoyl)amino]phenyl}-N^5-[2-(4-hydroxypiperidin-1-yl)ethyl]-1H-imidazole-4,5-dicarboxamide], the results for the IC50 in assay [1] and in assay [2] were 70 nM and 5 nM, respectively.

As to `CN1CCC(CNC(=O)c2nc[nH]c2C(=O)Nc2ccc(NC(=O)c3ccc(F)cc3Cl)cc2)CC1` [Example 408, N^5-{4-[(2-chloro-4-fluorobenzoyl)amino]phenyl}-N^4-[(1-methylpiperidin-4-yl)methyl]-1H-imidazole-4,5-dicarboxamide], the IC50 stood at 300 nM in assay [1] and 80 nM in assay [2].

In the case of `CC(C)[C@@H](CO)NC(=O)c1nc[nH]c1C(=O)Nc1ccc(NC(=O)c2ccc(F)cc2Cl)cc1` [Example 379, N^5-{4-[(2-chloro-4-fluorobenzoyl)amino]phenyl}-N^4-[(2S)-1-hydroxy-3-methylbutan-2-yl]-1H-imidazole-4,5-dicarboxamide], the figures for the IC50 in assay [1] and in assay [2] were 3200 nM and 190 nM, respectively.

For the compound `COC1CCN(CCNC(=O)c2[nH]cnc2C(=O)Nc2ccc(NC(=O)c3ccc(F)cc3Cl)cc2)C1` (stereo not shown) [Example 265, N^4-{4-[(2-chloro-4-fluorobenzoyl)amino]phenyl}-N^5-[2-(3-methoxypyrrolidin-1-yl)ethyl]-1H-imidazole-4,5-dicarboxamide], the 50% inhibitory concentration (IC50) in assay [1] was found to be 120 nM; in assay [2], 7 nM.

For the compound `O=C(Nc1ccc(NC(=O)c2[nH]cnc2C(=O)NCCN2CCS(=O)(=O)CC2)cc1)c1ccc(F)cc1Cl` [Example 402, N^5-{4-[(2-chloro-4-fluorobenzoyl)amino]phenyl}-N^4-[2-(1,1-dioxidothiomorpholin-4-yl)ethyl]-1H-imidazole-4,5-dicarboxamide], the figures for the IC50 in assay [1] and in assay [2] were 170 nM and 260 nM, respectively.

`CCN1CCC(CNC(=O)c2nc[nH]c2C(=O)Nc2ccc(NC(=O)c3ccc(F)cc3Cl)cc2)C1` (stereo not shown) [Example 411, N^5-{4-[(2-chloro-4-fluorobenzoyl)amino]phenyl}-N^4-[(1-ethylpyrrolidin-3-yl)methyl]-1H-imidazole-4,5-dicarboxamide]: the half-maximal inhibitory concentration (IC50) in assay [1] was 290 nM; in assay [2], 70 nM.

As to `CN(C)C(C)(C)CNC(=O)c1nc[nH]c1C(=O)Nc1ccc(NC(=O)c2ccc(F)cc2Cl)cc1` [Example 412, N^5-{4-[(2-chloro-4-fluorobenzoyl)amino]phenyl}-N^4-[2-(dimethylamino)-2-methylpropyl]-1H-imidazole-4,5-dicarboxamide], the IC50 in assay [1] was 140 nM; in assay [2], 30 nM.

As for `O=C(Nc1ccc(NC(=O)c2[nH]cnc2C(=O)NCCN2CCCCC2)cn1)c1ccccc1Cl` [Example 114, N^5-{6-[(2-chlorobenzoyl)amino]pyridin-3-yl}-N^4-[2-(piperidin-1-yl)ethyl]-1H-imidazole-4,5-dicarboxamide], the half-inhibitory concentration (IC50) is 70 nM in assay [1] and less than 0.5 nM in assay [2].
